Data: patent US20230365938A1, “METHODS OF FORMING COMPOSITIONS CONTAINING COLLAGEN” (priority 2019, published 2023)

What was measured:
[1] = tested on: Human mesenchymal stem cells (hMSC); assay: Cell proliferation (MTS) of hMSC treated with RSV, NAM or RSV+NAM; assay type: cell-based; conditions: 48 hours, serum-free media, normoxia, increasing dose, vs DMSO control
Experimental: Human mesenchymal stem cells (hMSC) were obtained from American Type Culture Collection (ATCC, Manassas, VA). Cells were stored in liquid nitrogen until use. MSCs were maintained in minimum essential medium, alpha (aMEM, Corning®, Corning, NY) supplemented with 16% Fetal Bovine Serum (FBS, VWR, Radnor, PA) and 4 mM L-glutamine (Sigma-Aldrich, St. Louis, MO). Medium was changed every other day, and once the cells reached 70-80% confluence, the cells were detached by trypsin-EDTA solution (VWR, Radnor, PA). hMSC were seeded (density 5,000 cells/cm^2) on 25 cm^2. When cells reached 80% confluency (4-5 days), they were washed two times with 5 ml of PBS. The growth media was then changed to serum-free media with or without a product treatment (5 ml), and the cells were cultured for 48 hours. […] Cell proliferation was assessed using CellTiter 96® AQueous Non-Radioactive Cell Proliferation Assay (MTS, Promega, Madison WI) based on the redox conversion of a tetrazolium salt into formazan product. […] The cells were incubated for 2 hours, and the absorbance of each well at 490 nm was measured using a SpectraMax® 190 Microplate Reader. Cell proliferation was determined using MTS, colorimetric assay after the cells were treated for 48 hours in serum free media with the vehicle (DMSO) as control, resveratrol (RSV), nicotinamide (NAM), or a combination (RSV+NAM) in serum-free media under normoxia. […]

[2] = tested on: hMSC secretome; assay: LC-MS/MS analysis of secreted proteins in the secretome; assay type: cell-based, human; conditions: n=4; for number of down-regulated proteins (Fold ≤ 1.5) vs control / number of up-regulated proteins (Fold ≥ 1.5) vs control: vs DMSO under normoxia
Experimental: Human mesenchymal stem cells (hMSC) were obtained from American Type Culture Collection (ATCC, Manassas, VA). Cells were stored in liquid nitrogen until use. MSCs were maintained in minimum essential medium, alpha (aMEM, Corning®, Corning, NY) supplemented with 16% Fetal Bovine Serum (FBS, VWR, Radnor, PA) and 4 mM L-glutamine (Sigma-Aldrich, St. Louis, MO). Medium was changed every other day, and once the cells reached 70-80% confluence, the cells were detached by trypsin-EDTA solution (VWR, Radnor, PA). hMSC were seeded (density 5,000 cells/cm^2) on 25 cm^2. When cells reached 80% confluency (4-5 days), they were washed two times with 5 ml of PBS. The growth media was then changed to serum-free media with or without a product treatment (5 ml), and the cells were cultured for 48 hours. Experiments were performed in two different environments, normoxia (about 18.6% oxygen) and hypoxia (5% oxygen). Cells were incubated at 37° C. and 5% CO2 throughout the experiment.
To characterize the hMSC secretome, condition media (CM or secretome) was collected from cells cultured under FBS-free for 48 hours. CM was filtered through a 0.45 μm syringe filter to remove residual cells and cell debris. The resulting condition media was concentrated and washed 3 times with 50 mM ammonium bicarbonate using Corning® Spin-X® UF Concentrators (10K Dalton, Corning®, Corning, NY) at 3,000 g for 25 minutes each cycle. Following, the secretome was collected from the concentrator, frozen at −80° C., and lyophilized 24 hours. Lyophilized secretome was stored at −80° C. For functional experiments with CM, normal hMSCs (passages 6-8) were used.
The amount of secretome was normalized in all samples, and 50 μl of the sample were pipetted in microcentrifuge units (Millipore, Burlington, MA) and digested following the filter aided sample preparation (FASP) protein digestion kit from Expedeon (San Diego, CA). Samples were reduced using 0.1 M dithiothreitol for 15 minutes at 50° C. […] was achieved using iodoacetamide for 20 minutes at room temperature following by 2× washing steps with 8 M urea and 50 mM ammonium bicarbonate. The samples were then enzymatically digested with trypsin at 37° C. overnight. Finally, samples were collected by spinning the microcentrifuge units at 14000 rcf for 20 minutes with a final wash with distilled water and freeze-dried. Prior to LC-MS/MS analysis, samples were resuspended in 0.1% formic acid.
Mass spectrometry analysis was executed in the orbitrap Thermo Velos Pro system (Thermo Fisher Scientific, Waltman, MA) using Thermo Xcalibur™ Roadmap software (Thermo Fisher Scientific, Waltman, MA). For this study, secretome from 4 independent experiments were processed and analyzed independently.
Mass spectra were analyzed using Proteome Discoverer™ 2.1 (Thermo Fisher Scientific, Waltman, MA) label-free differential protein expression analysis and the Sequest™ HT. Xcalibur™ raw data collected from the mass spectrometer was imported from the MS spectra and processed as followed. Only features compromising charges of 2+ and 3+ were selected. The mass precision was 2 ppm and mass tolerance 0.02 Da for fragment mass tolerance. Trypsin was set as the digestion enzyme with a maximum of two allowed missed cleavages with six as the minimum peptide length. Cysteine carbamidomethylation (C) was set as a fixed modification, and N-terminal acetylation and methionine oxidation were allowed as variable modifications. The spectra were searched using the Sequest™ HT search engine against the human Uniprot sequence database. Percolator node was used to filter data using 0.1 for FDR at the peptide and protein level. For relative quantification in a label-free analysis, the precursor ion area detector node was used, and ratios were calculated by dividing the treated samples vs. the control group (DMSO under normoxia). […]

Row | Compound | cell proliferation (MTS) versus control [1] | Total proteins (number of proteins secreted) ([2]; Hypoxia (5% O2)) | Unique vs control (number of unique proteins) ([2]; Hypoxia (5% O2)) | number of down-regulated proteins (Fold ≤ 1.5) vs control ([2]; Hypoxia (5% O2)) | number of up-regulated proteins (Fold ≥ 1.5) vs control ([2]; Hypoxia (5% O2)) | Total proteins (number of proteins secreted) ([2]; Normoxia) | Unique vs control (number of unique proteins) ([2]; Normoxia) | number of down-regulated proteins (Fold ≤ 1.5) vs control ([2]; Normoxia) | number of up-regulated proteins (Fold ≥ 1.5) vs control ([2]; Normoxia)
1 | Oc1ccc(/C=C/c2cc(O)cc(O)c2)cc1 [RSV, 3,5,4′-trihydroxy-trans-stilbene] | not a significant difference | 55 | 2 | 0 | 30 | 51 | 2 | 3 | 7
2 | NC(=O)c1cccnc1 [nicotinamide] | not a significant difference |  |  |  |  |  |  |  | 
